We go through 22 compounds from PubChem BioAssay (NCI).

Test systems include NCI-H23 lung; RXF 393 renal; HCT-116 colon; COLO 205 colon; SR leukemia; HT29 colon; SK-MEL-28 melanoma; ACHN renal; RPMI-8226 leukemia; HL-60(TB) leukemia.
Test in all cases: inhibition of tumour cell growth, NCI panel, 48 h

Molecules are shown by their SMILES.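 Briefly, cells in 96-well plates were exposed to five compound concentrations for 48 h, and endpoints were estimated by linear interpolation. Definition used: TGI = concentration required for complete inhibition of growth.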 Some results are limits rather than exact numbers.

With `CCCCOC(C)(C)/C=C/C(O)[C@](C)(O)[C@H]1[C@H](O)C[C@@]2(C)[C@@H]3CCc4c(cc(OC5OC(CO)C(O)C(O)C5O)c(O)c4C)C3(C)C(=O)C[C@]12C` (some centres not stated), the TGI in the experiment on NCI-H23 lung, in the experiment with RXF 393 renal, in the experiment with HCT-116 colon, in the experiment on COLO 205 colon, in the experiment with SR leukemia and in the experiment with HT29 colon was more than 100 µM throughout. For the same compound, the TGI in the experiment with SK-MEL-28 melanoma and with ACHN renal was more than 100 µM each time.
For `CCOC(=O)c1[nH]cc(C)c1-c1ccn(-c2ccccc2)c1`, the TGI with NCI-H23 lung is more than 100 µM; with RXF 393 renal it was more than 100 µM; in the experiment on HCT-116 colon, more than 100 µM; with COLO 205 colon, more than 100 µM; in the experiment with SR leukemia it was 72.4 µM; in the experiment with HT29 colon, more than 100 µM. The TGI in the experiment on SK-MEL-28 melanoma and in the experiment on ACHN renal was more than 100 µM each time.
In the case of `O=c1cc(/C=C/c2ccc(O)c(O)c2)oc(/C=C/c2ccc(O)c(O)c2)c1`, the TGI in the experiment with NCI-H23 lung is 25.1 µM; with RXF 393 renal, 9.12 µM; in the experiment on HCT-116 colon, 15.5 µM; in the experiment on COLO 205 colon it was 21.6 µM; with SR leukemia, 8.52 µM; with RPMI-8226 leukemia, more than 27.4 µM. Further, the TGI in the experiment on HT29 colon was 25.3 µM; in the experiment with SK-MEL-28 melanoma, 31.6 µM; with ACHN renal it was 16.1 µM.
On to `C/C(N=Nc1nc2ccccc2s1)=C1/C=CC=CN1O`, for which the TGI in the experiment with NCI-H23 lung, with RXF 393 renal, in the experiment with HCT-116 colon, with COLO 205 colon, in the experiment on SR leukemia and with RPMI-8226 leukemia was more than 100 µM throughout. Besides, the TGI with HT29 colon, in the experiment with SK-MEL-28 melanoma and in the experiment with ACHN renal was more than 100 µM throughout.
Take `CC(=O)OC(C)c1cc2c(s1)C(=O)c1sccc1C2=O` (configuration not stated): the TGI is more than 100 µM in the experiment on HL-60(TB) leukemia; 0.546 µM in the experiment with NCI-H23 lung; 3.27 µM in the experiment on RXF 393 renal; 2.48 µM in the experiment with HCT-116 colon; 3.59 µM in the experiment on COLO 205 colon; more than 100 µM in the experiment on SR leukemia. The TGI in the experiment with RPMI-8226 leukemia turned out to be 4.78 µM; with HT29 colon it was 6.18 µM; with SK-MEL-28 melanoma, 3.64 µM.
With `COc1cc(C2c3cc4c(cc3OC(NN=C(C)C)C2C)OCO4)cc(OC)c1O` (configuration not stated), the TGI in the experiment with NCI-H23 lung was more than 100 µM; in the experiment with RXF 393 renal, more than 100 µM; in the experiment on HCT-116 colon, more than 100 µM; with COLO 205 colon, more than 100 µM; in the experiment on SR leukemia, 16.5 µM; in the experiment on RPMI-8226 leukemia, 31.2 µM. The TGI in the experiment with HT29 colon and in the experiment with SK-MEL-28 melanoma was more than 100 µM throughout.
For the compound `CCN(CC)CCNc1ccc2nnn3c4ccc(OC)cc4c(=O)c1c23`, the TGI was determined as 22.3 µM in the experiment with HL-60(TB) leukemia; 20.9 µM in the experiment on NCI-H23 lung; 14.5 µM with HCT-116 colon; 20.4 µM in the experiment on COLO 205 colon; 7.21 µM in the experiment on SR leukemia; 14.9 µM with RPMI-8226 leukemia. In addition, the TGI was 15.9 µM in the experiment on HT29 colon, 28.9 µM in the experiment with SK-MEL-28 melanoma and 21.7 µM in the experiment on ACHN renal.
As for `COc1cc(/C=C2\C(=O)N(C(=O)Cc3ccccc3)N=C2C)ccc1O`, the TGI in the experiment with HL-60(TB) leukemia, in the experiment with NCI-H23 lung, with HCT-116 colon, in the experiment with COLO 205 colon, in the experiment on SR leukemia and in the experiment with RPMI-8226 leukemia was more than 100 µM throughout. Moreover, the TGI in the experiment with SK-MEL-28 melanoma and in the experiment with ACHN renal was more than 100 µM in each case.
For the compound `CC1(C)O[C@@H]2COC(=O)[C@@H]2O1`, the TGI in the experiment with HL-60(TB) leukemia, in the experiment with NCI-H23 lung, in the experiment on RXF 393 renal, in the experiment on HCT-116 colon, in the experiment with COLO 205 colon and with SR leukemia was more than 100 µM in each case. The TGI in the experiment with HT29 colon, in the experiment with SK-MEL-28 melanoma and in the experiment on ACHN renal was more than 100 µM in each case.
As to `CC(=O)NS(=O)(=O)c1ccc(NC(=O)c2c3ccccc3nc3ccccc23)cc1`, the TGI in the experiment on NCI-H23 lung, in the experiment on HCT-116 colon, in the experiment with COLO 205 colon, in the experiment with SR leukemia, with RPMI-8226 leukemia and with HT29 colon was more than 100 µM throughout. In addition, the TGI in the experiment with SK-MEL-28 melanoma and in the experiment with ACHN renal was more than 100 µM in each case.
For `COc1ccc(N[C@H](CSc2ccc(C)cc2)c2ccc(F)cc2)cc1`, the TGI with NCI-H23 lung, in the experiment on RXF 393 renal, with HCT-116 colon, with COLO 205 colon, in the experiment with SR leukemia and with RPMI-8226 leukemia was more than 100 µM each time. In addition, the TGI with HT29 colon, in the experiment with SK-MEL-28 melanoma and with ACHN renal was more than 100 µM in each case.
For the compound `Nc1c2ccccc2nc2c1ccc1ncccc12`, the TGI with HL-60(TB) leukemia was 20.4 µM; in the experiment on NCI-H23 lung, 75.6 µM; in the experiment with RXF 393 renal, 98.4 µM; in the experiment with HCT-116 colon, more than 100 µM; in the experiment on COLO 205 colon, more than 100 µM; in the experiment on SR leukemia, more than 100 µM. Moreover, the TGI with HT29 colon is more than 100 µM; in the experiment on SK-MEL-28 melanoma it was more than 100 µM; in the experiment with ACHN renal, 41 µM.
`COc1ccc(Nc2nc3ccc(C(F)(F)F)cc3nc2C(=O)O)cc1OC`: the TGI in the experiment on HL-60(TB) leukemia was 64.1 µM; with NCI-H23 lung, 58.6 µM; in the experiment with RXF 393 renal, more than 100 µM; with HCT-116 colon it was 80 µM; with COLO 205 colon it was more than 100 µM; in the experiment on SR leukemia, 58 µM. Also, the TGI in the experiment on HT29 colon, in the experiment with SK-MEL-28 melanoma and with ACHN renal was more than 100 µM in each case.
Take `CC(C)(C)N=c1n(C(C)(C)C)oc(=O)n1C(C)(C)C`: the TGI with HL-60(TB) leukemia, in the experiment on NCI-H23 lung, in the experiment with RXF 393 renal, with HCT-116 colon, with COLO 205 colon and in the experiment on SR leukemia was more than 100 µM each time. Further, the TGI in the experiment on HT29 colon, in the experiment on SK-MEL-28 melanoma and in the experiment with ACHN renal was more than 100 µM in each case.
In the case of `CCCCn1c2c(n(CCCC)c1=S)-c1c(n(CCCC)c(=S)n1CCCC)S[Se][Se]S2`, the TGI with NCI-H23 lung is 41.5 µM; with RXF 393 renal, 25.4 µM; in the experiment with HCT-116 colon, 16.9 µM; in the experiment on COLO 205 colon it was 3.87 µM; in the experiment on SR leukemia it was more than 100 µM; with RPMI-8226 leukemia, more than 35.3 µM. Further, the TGI is 32.5 µM with HT29 colon, more than 61.4 µM in the experiment on SK-MEL-28 melanoma and 14.2 µM with ACHN renal.
In the case of `CC(C)(C)C1=Cc2cc3cc(C(C)(C)C)[nH]c(=O)c3cc2S(=O)(=O)N1`, the TGI in the experiment with HL-60(TB) leukemia worked out at 43.1 µM; in the experiment with NCI-H23 lung it was 85.3 µM; in the experiment with HCT-116 colon it was 42.8 µM; in the experiment on COLO 205 colon it was 39.9 µM; in the experiment with SR leukemia it was 61.5 µM; with RPMI-8226 leukemia, 98.5 µM. Further, the results for the TGI in the experiment with HT29 colon, with SK-MEL-28 melanoma and with ACHN renal were 41.4 µM, more than 100 µM and 89.3 µM, respectively.
As to `C/C(=N/NC(N)=S)c1ccc2ccccc2c1`, the TGI with HL-60(TB) leukemia is more than 100 µM; with NCI-H23 lung it was more than 100 µM; in the experiment on RXF 393 renal, 81.8 µM; in the experiment on HCT-116 colon, 78.4 µM; in the experiment on COLO 205 colon, 41.9 µM; with SR leukemia it was more than 100 µM. The TGI with HT29 colon is 72.4 µM; in the experiment with SK-MEL-28 melanoma, more than 100 µM; in the experiment with ACHN renal it was more than 100 µM.
As for `COc1cc2c(cc1OC)C1c3ccccc3CCN1CC2` (configuration not stated), the TGI in the experiment on HL-60(TB) leukemia is 80.3 µM; in the experiment with NCI-H23 lung, more than 100 µM; in the experiment with RXF 393 renal it was more than 100 µM; in the experiment on HCT-116 colon it was more than 100 µM; in the experiment on COLO 205 colon, more than 100 µM; in the experiment with SR leukemia, more than 100 µM. Besides, the TGI in the experiment with HT29 colon, in the experiment on SK-MEL-28 melanoma and with ACHN renal was more than 100 µM throughout.
Take `CCOP(=O)(OCC)C1C(CO)OC(n2ccc(=O)[nH]c2=O)C1O` (configuration not stated): the TGI with HL-60(TB) leukemia, in the experiment with RXF 393 renal, in the experiment on HCT-116 colon, with SR leukemia, in the experiment with RPMI-8226 leukemia and in the experiment on HT29 colon was more than 100 µM each time. The TGI in the experiment on SK-MEL-28 melanoma and in the experiment on ACHN renal was more than 100 µM throughout.
For `CC(=O)N/N=C1/NN(C(C)=O)C2(S1)C(=O)Nc1ccc(Br)cc12` (configuration not stated), the TGI in the experiment on HL-60(TB) leukemia, in the experiment on NCI-H23 lung, in the experiment on RXF 393 renal, in the experiment on HCT-116 colon, in the experiment on SR leukemia and in the experiment on RPMI-8226 leukemia was more than 100 µM in each case. Also, the TGI in the experiment on HT29 colon, in the experiment with SK-MEL-28 melanoma and with ACHN renal was more than 100 µM each time.
As for `Cc1nn(C(=O)Cc2ccccc2)c2c1C(c1ccccc1O)SC(N)=N2` (configuration not stated), the TGI in the experiment on HL-60(TB) leukemia, with NCI-H23 lung, with HCT-116 colon, in the experiment on COLO 205 colon, in the experiment with SR leukemia and in the experiment on RPMI-8226 leukemia was more than 100 µM throughout. Besides, the TGI with HT29 colon, in the experiment on SK-MEL-28 melanoma and in the experiment on ACHN renal was more than 100 µM each time.
In the case of `Cc1cc2c(C)cc(=O)[nH]c2cc1N`, the TGI in the experiment on NCI-H23 lung, with RXF 393 renal, in the experiment with HCT-116 colon, in the experiment with COLO 205 colon, in the experiment on SR leukemia and in the experiment with RPMI-8226 leukemia was more than 100 µM each time. Further, the TGI in the experiment with HT29 colon, in the experiment with SK-MEL-28 melanoma and in the experiment with ACHN renal was more than 100 µM throughout.
